For data set [1], the system named is angiogenesis. Nature of the data set: Steroids tested with heparin and heparin fragments against angiogenesis. The text has this:
Deltacortisone has not previously been disclosed for use in combination with heparin fragments generally, or pentosan polysulfate.

The test system of data set [2] is transitional cell carcinoma. Nature of the data set: Subcutaneous transitional cell carcinoma in mice, oral or injected therapy. It is filed as in vivo. As to the method:
100 mice injected with live transitional cell carcinoma subcutaneously, and were grown to a maximum size of 2 cm prior to therapy. The mice were given SP₅₄ and hydrocortisone orally and by injection. The composition was orally administered with SP₅₄ at 0.06 mg/ml and hydrocortisone at 0.5 mg/ml in drinking water. In others the composition was injected with 0.66 mg/ml SP₅₄ and hydrocortisone at 3 mg/ml twice daily, 0.55 ml.

The conditions of data set [3]: cited from earlier work.
Data set [4] concerns tumor angiogenesis. The conditions noted are these: hamster cheek pouch, under certain conditions; cited from earlier work.

Data on nine molecules can be found in patent publication EP0299975B1, “COMPOSITION FOR ARRESTING ANGIOGENESIS AND CAPILLARY, CELL OR MEMBRANE LEAKAGE” (Angiogenics Limited, priority 1986, dated 1987).

Consider `CC(=O)[C@H]1CC[C@H]2[C@@H]3CCC4=CC(=O)CC[C@]4(C)[C@H]3CC[C@]12C` [progesterone], for which the overcoming angiogenesis entry in data set [1] is reported as “ineffective”.

For `C[C@]12CC[C@H]3[C@@H](CCC4=CC(=O)CC[C@@]43C)[C@@H]1CC[C@@H]2O` [testosterone], in data set [1], the overcoming angiogenesis entry is listed as “ineffective”. On to `C[C@]12C[C@H](O)[C@H]3[C@@H](CCC4=CC(=O)CC[C@@]43C)[C@@H]1CC[C@@H]2C(=O)CO` [corticosterone], for which the overcoming angiogenesis entry in data set [1] is “ineffective”. Consider `C[C@]12CCC(=O)C=C1CC[C@@H]1[C@@H]2[C@@H](O)C[C@@]2(C)[C@H]1CC[C@]2(O)C(=O)CO` [hydrocortisone], for which the effect on tumor entry in data set [2] (SP₅₄ eliminated from treatment) is recorded as “regression of tumor”. In addition, the lung metastasis result in data set [2] (mice with transitional cell carcinoma after treatment) was “found to have lung metastasis”. Regarding `C[C@]12C=CC(=O)C=C1CC[C@@H]1[C@@H]2C(=O)C[C@@]2(C)[C@H]1CC[C@]2(O)C(=O)CO` [Deltacortisone], the water solubility entry in data set [3] is “not water soluble to a sufficiently substantial extent”.

As to `CC(C)CCC[C@@H](C)[C@H]1CC[C@H]2[C@@H]3CC=C4C[C@@H](O)CC[C@]4(C)[C@H]3CC[C@]12C` [cholesterol], in data set [1], the overcoming angiogenesis entry is given as “ineffective”. Still for that read-out and setting: with `C[C@]12CCC(=O)C=C1CC[C@@H]1[C@@H]2CC[C@@]2(C)[C@H]1CC[C@]2(O)C(=O)CO` [cortexolone] the entry was “ineffective”. Take `C[C@H]1C[C@@H]2[C@H]([C@@H](O)C[C@@]3(C)[C@H]2CC[C@]3(O)C(=O)CO)[C@@]2(C)C=CC(=O)C=C12` [6 alpha-methyl-prednisolone]: the “effect on tumor angiogenesis” value in data set [4] is recorded as “partially suppressed”. Turning to `CC(=O)[C@H]1CC[C@H]2[C@@H]3CC=C4C[C@@H](O)CC[C@]4(C)[C@H]3CC[C@]12C` [pregnenolone], the overcoming angiogenesis result in data set [1] is “ineffective”.
